In general, bioavailability refers to the share of a dose that reaches the circulation, judged against a reference dose that is usually intravenous.

Structures can show the parent of a compound that is named as a salt. Where two headings read alike, the source gives them in different places.

Here are results for 5 molecules from patent US9388147B2 (Receptos, Inc., priority 2009, dated 2016).

In one data set the target is S1P1/EDG1 (Homo sapiens, UniProt P21453). Briefly: S1P1 CRE-bla CHOK1 reporter assay, inhibition of Forskolin induced cAMP. The format is cell-based. A digest of the protocol:
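Read-out is a FRET β-lactamase substrate (2 h, room temperature) after 4 h, 37 °C compound treatment under 2 μM Forskolin in stable S1P1-transfected CRE-bla CHO-K1 cells. Ten-point curves; non-linear regression gives EC50 for inhibition of Forskolin-stimulated cAMP.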
In general terms: A reporter such as luciferase makes a cellular process visible.

Data set [1] in a line: Determination of absolute oral bioavailability in rats. The format is in vivo, Sprague-Dawley rat. Conditions: non-fasted female Sprague-Dawley rats, oral solution 0.3 mg/kg (85), 2 mg/kg (49, 50), iv 0.3 mg/kg (49, 50), 0.8 mg/kg racemic 85/86. On the procedure: All pharmacokinetic studies were conducted in non-fasted female Sprague-Dawely rats (Simonsen Laboratories or Harlan Laboratories). Rats were housed in an ALAAC accredited facility and the research was approved by the facilities Institutional Animal Care and Use Committee (IACUC). The animals were acclimated to the laboratory for at least 48 h prior to initiation of experiments.
Compounds were formulated in 5% DMSO/5% Tween20 and 90% purified water (intravenous infusion) or 5% DMSO/5% Tween20 and 90% 0.1N HCL (oral gavage). The concentration of the dosing solutions was verified by HPLC-UV. For intravenous dosing, compounds were administered by an infusion pump into the jugular vein over one minute to manually restrained animals (n=4 rats/compound). The intravenous doses were 0.8 for a 1:1 mixture (racemic) of 85 and 86, and 0.3 and 0.3 mg/kg for compounds 49 and 50, respectively. Oral dosing was by gavage using a standard stainless steel gavage needle (n=2-4 rats/compound). The oral solution doses were 0.3, 2 and 2 mg/kg for compounds 85, 49 and 50, respectively. For both routes of administration, blood was collected at eight time-points after dosing with the final sample drawn 24 h post dose. Aliquots of the blood samples were transferred to polypropylene 96-well plate and frozen at −20° C. until analysis. […]
Concentrations in the rat pharmacokinetic samples were determined using a standardized HPLC-LC/MS/MS method relative to the eight point standard curve. […] Collision energies used to generate daughter ions ranged between 29 and 39 V. Peak area ratios obtained from MRM of the mass transitions specific for each compound were used for quantification. The limit of quantification of the method was typically 5 nM. Data were collected and analyzed using Analyst software version 1.4.2.
Blood concentration versus time data were analyzed using non-compartmental methods (WinNonlin version 5.2; model 200 for oral dosing and model 202 for intravenous infusion). Absolute oral bioavailability (%) was calculated using the following expression: (Oral AUC×IV Dose)/(IV AUC×Oral Dose)×100. […]

A further data set has as its target T1, S1P3 (Homo sapiens, UniProt Q99500).
T1 construct: host or cells: NFAT-bla HEK293T
As to the kind of experiment: Specificity over other S1P receptors: S1P3-Gα15 NFAT-bla HEK293T reporter assay. In kind it is cell-based. Conditions: without Forskolin, read-out: S1P3 agonist value (EC50).

[2] abbreviates: S1P1 CRE-bla CHOK1, with Forskolin, read-out: S1P1 agonist value (EC50).
[3] abbreviates: agonist activity range, S1P1 CRE-bla CHOK1, 2 μM Forskolin, read-out: S1P1 ACTIVITY

Sequence of S1P1/EDG1 (P21453 whole entry): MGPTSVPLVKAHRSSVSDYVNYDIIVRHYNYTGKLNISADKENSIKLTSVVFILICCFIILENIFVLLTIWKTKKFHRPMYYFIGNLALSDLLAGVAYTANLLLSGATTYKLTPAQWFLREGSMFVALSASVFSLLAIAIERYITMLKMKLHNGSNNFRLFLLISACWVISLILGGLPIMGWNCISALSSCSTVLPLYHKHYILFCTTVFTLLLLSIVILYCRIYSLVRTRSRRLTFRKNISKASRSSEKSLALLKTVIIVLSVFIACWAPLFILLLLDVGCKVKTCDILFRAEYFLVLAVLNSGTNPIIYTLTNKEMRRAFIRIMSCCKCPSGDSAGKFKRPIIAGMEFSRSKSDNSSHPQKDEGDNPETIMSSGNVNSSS
T1 sequence (Q99500 whole entry): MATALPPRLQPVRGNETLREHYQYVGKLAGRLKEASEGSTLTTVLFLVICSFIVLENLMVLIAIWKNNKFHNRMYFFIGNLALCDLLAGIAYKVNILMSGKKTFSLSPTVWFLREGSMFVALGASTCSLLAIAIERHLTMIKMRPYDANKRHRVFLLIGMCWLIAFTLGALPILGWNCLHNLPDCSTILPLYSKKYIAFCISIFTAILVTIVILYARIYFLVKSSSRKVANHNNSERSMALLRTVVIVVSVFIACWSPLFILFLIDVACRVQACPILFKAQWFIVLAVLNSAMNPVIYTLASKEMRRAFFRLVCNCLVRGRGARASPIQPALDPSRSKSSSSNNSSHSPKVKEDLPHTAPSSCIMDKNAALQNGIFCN

As to `CC(C)Oc1ccc(-c2nc(-c3cccc4c3CC[C@H]4N)no2)cc1C#N` [Compound 49, (R)-5-(3-(1-amino-2,3-dihydro-1H-inden-4-yl)-1,2,4-oxadiazol-5-yl)-2-isopropoxy-benzonitrile hydrochloride], the EC50 on S1P1/EDG1 (setting [2]) is 0.17 nM; on S1P1/EDG1 (setting [3]) it was 0.05 to 0.5 nM; at S1P3 it was 8940 nM. Further, the bioavailability in data set [1] (rat, whole blood) is 93%.

In the case of `CC(C)Oc1ccc(-c2nc(-c3cccc4c3CC[C@@H]4N)no2)cc1C#N` [Compound 50, (S)-5-(3-(1-amino-2,3-dihydro-1H-inden-4-yl)-1,2,4-oxadiazol-5-yl)-2-isopropoxy-benzonitrile], the EC50 at S1P1/EDG1 (setting [2]) is 0.19 nM; on S1P1/EDG1 (setting [3]) it was 0.05 to 0.5 nM; at S1P3, 8910 nM. Moreover, in data set [1], the “Rat - Oral bioavailability Solution” value was determined as 91%.

Take `CC(C)Oc1ccc(-c2nc(-c3cccc4c3CC[C@H]4NCCO)no2)cc1C#N` [Compound 85, (R)-5-(3-(1-(2-hydroxyethylamino)-2,3-dihydro-1H-inden-4-yl)-1,2,4-oxadiazol-5-yl)-2-isopropoxybenzonitrile]: the “Rat - Oral bioavailability Solution” value in data set [1] is listed as 69%. In addition, on S1P3, the EC50 is 4500 nM.

For `CC(C)Oc1ccc(-c2nc(-c3cccc4c3CC[C@H]4NCC(=O)N(C)C)no2)cc1C#N` [Compound 90, (R)-2-(4-(5-(3-cyano-4-isopropoxyphenyl)-1,2,4-oxadiazol-3-yl)-2,3-dihydro-1H-inden-1-ylamino)-N,N-dimethylacetamide hydrochloride], the EC50 was 0.13 nM on S1P1/EDG1 (setting [2]), 0.05 to 0.5 nM on S1P1/EDG1 (setting [3]) and 8820 nM at S1P3.

For the molecule `CC(C)Oc1ccc(-c2nc(-c3cccc4c3CC[C@@H]4NCC(=O)N(C)C)no2)cc1C#N` [Compound 91, (S)-2-(4-(5-(3-cyano-4-isopropoxyphenyl)-1,2,4-oxadiazol-3-yl)-2,3-dihydro-1H-inden-1-ylamino)-N,N-dimethylacetamide], the values for the EC50 on S1P1/EDG1 (setting [2]), on S1P1/EDG1 (setting [3]) and on S1P3 were 0.09 nM, 0.05 to 0.5 nM and greater than 10000 nM, respectively.
